# Measured values: patent US20170320870A1 (Medical Research Council Technology, priority 2009, published 2017)
# Molecular target: T1, LRRK2 wild type (recombinant human, catalytic domain amino acids 970-2527, GST-tagged) (Homo sapiens, UniProt Q5S007)
# T1 construct: The wild type used was recombinant human, catalytic domain (amino acids 970-2527) GST-tagged, expressed in insect cells; GST; purchased Invitrogen Corporation PV4873; host or cells: insect cells
# Experiment: LRRK2 wild type protein kinase assay ([γ-33P] ATP, peptide substrate […]), IC50
# Assay type: biochemical
# Conditions: LRRK2 (variant not given); read-out: Potency score, LRRK2 IC50
# Outline: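 IC50 derived from duplicate 10-point titrations, with 33P incorporation into a 100 μM peptide counted after P81 filter capture. Roughly 5 nM unactivated kinase reacted with Mg/[γ-33P]ATP for 180 min at room temperature (~21 °C), pH 7.5 Tris buffer containing 10 mM MgCl2, EGTA and DTT; acid-quenched.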
# T1 sequence (Q5S007 970-2527): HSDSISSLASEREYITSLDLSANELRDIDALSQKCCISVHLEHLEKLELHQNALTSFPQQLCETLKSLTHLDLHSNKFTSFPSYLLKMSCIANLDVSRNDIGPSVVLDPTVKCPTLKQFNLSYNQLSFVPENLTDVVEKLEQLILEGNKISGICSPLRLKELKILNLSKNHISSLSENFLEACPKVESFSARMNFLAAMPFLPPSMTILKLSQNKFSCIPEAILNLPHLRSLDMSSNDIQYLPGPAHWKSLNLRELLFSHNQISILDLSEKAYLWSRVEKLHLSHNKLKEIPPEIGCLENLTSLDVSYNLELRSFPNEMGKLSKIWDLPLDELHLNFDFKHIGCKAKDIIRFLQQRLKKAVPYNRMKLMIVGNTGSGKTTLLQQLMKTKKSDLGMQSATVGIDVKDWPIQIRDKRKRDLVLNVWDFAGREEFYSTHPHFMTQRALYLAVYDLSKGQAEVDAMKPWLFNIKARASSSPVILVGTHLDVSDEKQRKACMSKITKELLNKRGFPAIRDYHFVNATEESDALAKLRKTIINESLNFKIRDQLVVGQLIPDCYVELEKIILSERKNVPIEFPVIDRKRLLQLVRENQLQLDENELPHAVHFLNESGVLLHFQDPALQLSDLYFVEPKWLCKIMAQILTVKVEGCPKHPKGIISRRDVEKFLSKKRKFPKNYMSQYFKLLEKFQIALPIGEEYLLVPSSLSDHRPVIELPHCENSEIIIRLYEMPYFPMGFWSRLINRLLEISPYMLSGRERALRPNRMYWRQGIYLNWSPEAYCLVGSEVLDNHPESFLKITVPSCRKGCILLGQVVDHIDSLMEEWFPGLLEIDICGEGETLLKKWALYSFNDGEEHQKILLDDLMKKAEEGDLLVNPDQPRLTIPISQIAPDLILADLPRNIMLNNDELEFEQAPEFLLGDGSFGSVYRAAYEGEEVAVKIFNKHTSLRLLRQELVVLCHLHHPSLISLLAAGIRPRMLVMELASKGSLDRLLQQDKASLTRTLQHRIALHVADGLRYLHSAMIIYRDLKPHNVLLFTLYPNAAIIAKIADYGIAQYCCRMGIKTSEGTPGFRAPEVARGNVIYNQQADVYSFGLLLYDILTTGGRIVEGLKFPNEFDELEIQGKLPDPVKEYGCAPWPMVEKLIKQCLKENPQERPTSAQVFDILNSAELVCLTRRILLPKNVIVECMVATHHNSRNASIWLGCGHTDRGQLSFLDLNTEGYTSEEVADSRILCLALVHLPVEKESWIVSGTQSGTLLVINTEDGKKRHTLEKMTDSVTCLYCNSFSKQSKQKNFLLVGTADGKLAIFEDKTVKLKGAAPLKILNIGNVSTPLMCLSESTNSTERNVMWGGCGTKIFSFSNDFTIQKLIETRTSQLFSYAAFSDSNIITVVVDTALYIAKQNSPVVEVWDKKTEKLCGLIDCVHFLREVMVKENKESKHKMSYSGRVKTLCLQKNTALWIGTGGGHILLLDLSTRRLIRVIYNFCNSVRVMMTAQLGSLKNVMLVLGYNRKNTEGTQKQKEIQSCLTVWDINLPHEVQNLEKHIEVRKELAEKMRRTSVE
row,IC50 [nM],Structure (SMILES)
1,100 to 1000,"c1cc(CCc2n[nH]c3ccnc(NC4CCCCC4)c23)ccn1 [Example 218, Cyclohexyl-[3-(2-pyridin-4-yl-ethyl)-1H-pyrazolo[4,3-c]pyridin-4-yl]-amine]"
2,1000 to 10000,"CC(=O)N1CCC(CCc2n[nH]c3ccnc(NC4CCCCC4)c23)CC1 [Example 219, 1-{4-[2-(4-Cyclohexylamino-1H-pyrazolo[4,3-c]pyridin-3-yl)-ethyl]-piperidin-1-yl}-ethanone]"
3,100 to 1000,"CS(=O)(=O)N1CCC(CCc2n[nH]c3ccnc(NC4CCCCC4)c23)CC1 [Example 220, Cyclohexyl-{3-[2-(1-methanesulfonyl-piperidin-4-yl)-ethyl]-1H-pyrazolo[4,3-c]pyridin-4-yl}-amine]"
4,< 100,"Nc1cccc(CCc2n[nH]c3ccnc(NC4CCCCC4)c23)c1 [Example 221, {3-[2-(3-Amino-phenyl)-ethyl]-1H-pyrazolo[4,3-c]pyridin-4-yl}-cyclohexyl-amine]"
5,< 100,"CC(=O)Nc1cccc(CCc2n[nH]c3ccnc(NC4CCCCC4)c23)c1 [Example 222, N-{3-[2-(4-Cyclohexylamino-1H-pyrazolo[4,3-c]pyridin-3-yl)-ethyl]-phenyl}-acetamide]"
6,< 100,"O=C(CC1CC1)Nc1cccc(CCc2n[nH]c3ccnc(NC4CCCCC4)c23)c1 [Example 223, N-{3-[2-(4-Cyclohexylamino-1H-pyrazolo[4,3-c]pyridin-3-yl)-ethyl]-phenyl}-2-cyclopropyl-acetamide]"
7,100 to 1000,"CN1CCC(C(=O)Nc2cccc(CCc3n[nH]c4ccnc(NC5CCCCC5)c34)c2)CC1 [Example 224, 1-Methyl-piperidine-4-carboxylic acid {3-[2-(4-cyclohexylamino-1H-pyrazolo[4,3-c]pyridin-3-yl)-ethyl]-phenyl}-amide]"
8,< 100,"O=C(Nc1cccc(CCc2n[nH]c3ccnc(NC4CCCCC4)c23)c1)C1CCCC1 [Example 225, Cyclopentanecarboxylic acid {3-[2-(4-cyclohexylamino-1H-pyrazolo[4,3-c]pyridin-3-yl)-ethyl]-phenyl}-amide]"
9,< 100,"O=C(Nc1cccc(CCc2n[nH]c3ccnc(NC4CCCCC4)c23)c1)c1cccc(Cl)c1 [Example 226, 3-Chloro-N-{3-[2-(4-cyclohexylamino-1H-pyrazolo[4,3-c]pyridin-3-yl)-ethyl]-phenyl}-benzamide]"
10,< 100,"O=C(Nc1cccc(CCc2n[nH]c3ccnc(NC4CCCCC4)c23)c1)c1ccc(N2CCOCC2)cc1 [Example 227, N-{3-[2-(4-Cyclohexylamino-1H-pyrazolo[4,3-c]pyridin-3-yl)-ethyl]-phenyl}-4-morpholin-4-yl-benzamide]"
11,< 100,"O=C(Nc1cccc(CCc2n[nH]c3ccnc(NC4CCCCC4)c23)c1)c1cocn1 [Example 228, Oxazole-4-carboxylic acid {3-[2-(4-cyclohexylamino-1H-pyrazolo[4,3-c]pyridin-3-yl)-ethyl]-phenyl}-amide]"
12,< 100,"CC1CCN(C(=O)c2ccc(CCc3n[nH]c4ccnc(NC5CCCCC5)c34)cc2)CC1 [Example 229, {4-[2-(4-Cyclohexylamino-1H-pyrazolo[4,3-c]pyridin-3-yl)-ethyl]-phenyl}-(4-methyl-piperidin-1-yl)-methanone]"
13,1000 to 10000,"O=C1CCCN1c1n[nH]c2ccnc(NC3CCCCC3)c12 [Example 230, 1-(4-Cyclohexylamino-1H-pyrazolo[4,3-c]pyridin-3-yl)-pyrrolidin-2-one]"
14,1000 to 10000,"OCCCc1n[nH]c2ccnc(NC3CCCCC3)c12 [Example 231, 3-(4-Cyclohexylamino-1H-pyrazolo[4,3-c]pyridin-3-yl)-propan-1-ol]"
15,100 to 1000,"COC(=O)c1ccc(CCc2n[nH]c3ccnc(NC4CCCCC4)c23)cc1 [Example 232, 4-[2-(4-Cyclohexylamino-1H-pyrazolo[4,3-c]pyridin-3-yl)-ethyl]-benzoic acid methyl ester]"
16,100 to 1000,"c1cc2[nH]nc(-c3cnn(CCN4CCOCC4)c3)c2c(NC2CCCCC2)n1 [Example 233, Cyclohexyl-{3-[1-(2-morpholin-4-yl-ethyl)-1H-pyrazol-4-yl]-1H-pyrazolo[4,3-c]pyridin-4-yl}-amine]"
17,100 to 1000,"c1ccc(Cn2cc(-c3n[nH]c4ccnc(NC5CCCCC5)c34)cn2)nc1 [Example 234, Cyclohexyl-[3-(1-pyridin-2-ylmethyl-1H-pyrazol-4-yl)-1H-pyrazolo[4,3-c]pyridin-4-yl]-amine]"
18,< 100,"CC(C)n1cc(-c2n[nH]c3ccnc(NC4CCCCC4)c23)cn1 [Example 235, Cyclohexyl-[3-(1-isopropyl-1H-pyrazol-4-yl)-1H-pyrazolo[4,3-c]pyridin-4-yl]-amine]"
19,< 100,"c1cc2[nH]nc(-c3ccoc3)c2c(OC2CCCCC2)n1 [Example 236, 4-Cyclohexyloxy-3-furan-3-yl-1H-pyrazolo[4,3-c]pyridine]"

row,IC50 [nM],Structure (SMILES)
1,100 to 1000,"c1cc2[nH]nc(N3CCCC3)c2c(OC2CCCCC2)n1 [Example 237, 4-Cyclohexyloxy-3-pyrrolidin-1-yl-1H-pyrazolo[4,3-c]pyridine]"
2,100 to 1000,"O=C(CCc1n[nH]c2ccnc(NC3CCCCC3)c12)N1CCCC(Oc2ccccc2)C1 (stereo not shown) [Example 238, 3-(4-Cyclohexylamino-1H-pyrazolo[4,3-c]pyridin-3-yl)-1-(3-phenoxy-piperidin-1-yl)-propan-1-one]"
3,100 to 1000,"Cn1ncnc1C1CCCN(C(=O)CCc2n[nH]c3ccnc(NC4CCCCC4)c23)C1 (stereo not shown) [Example 239, 3-(4-Cyclohexylamino-1H-pyrazolo[4,3-c]pyridin-3-yl)-1-[3-(2-methyl-2H-1,2,4-triazol-3-yl)-piperidin-1-yl]-propan-1-one]"
4,100 to 1000,"CCN(CC)CC1CCCN(C(=O)CCc2n[nH]c3ccnc(NC4CCCCC4)c23)C1 (stereo not shown) [Example 240, 3-(4-Cyclohexyl-amino-1H-pyrazolo[4,3-c]pyridin-3-yl)-1-(3-diethylaminomethyl-piperidin-1-yl)-propan-1-one]"
5,< 100,"CC1CN(C(=O)CCc2n[nH]c3ccnc(NC4CCCCC4)c23)C1 [Example 241, 3-(4-Cyclohexyl-amino-1H-pyrazolo [4,3-c]pyridin-3-yl)-1-(3-methyl-azetidin-1-yl)-propan-1-one]"
6,100 to 1000,"O=C(CCc1n[nH]c2ccnc(NC3CCCCC3)c12)N1CC(c2ccccc2)C1 [Example 242, 3-(4-Cyclohexylamino-1H-pyrazolo[4,3-c]pyridin-3-yl)-1-(3-phenyl-azetidin-1-yl)-propan-1-one]"
7,< 100,"C[C@@H]1CCCN(C(=O)CCc2n[nH]c3ccnc(NC4CCCCC4)c23)C1 [Example 243, 3-(4-Cyclohexylamino-1H-pyrazolo[4,3-c]pyridin-3-yl)-1-((R)-3-methyl-piperidin-1-yl)-propan-1-one]"
8,100 to 1000,"CC1CN(C(=O)CCc2n[nH]c3ccnc(NC4CCCCC4)c23)CCN1C (stereo not shown) [Example 244, 3-(4-Cyclohexylamino-1H-pyrazolo [4,3-c]pyridin-3-yl)-1-(3,4-dimethyl-piperazin-1-yl)-propan-1-one]"
9,100 to 1000,"CN1CCN(C(=O)CCc2n[nH]c3ccnc(NC4CCCCC4)c23)CC1c1ccccc1 (stereo not shown) [Example 245, 3-(4-Cyclohexylamino-1H-pyrazolo[4,3-c]pyridin-3-yl)-1-(4-methyl-3-phenyl-piperazin-1-yl)-propan-1-one]"
10,< 100,"C[C@@H]1CCN(C(=O)CCc2n[nH]c3ccnc(NC4CCCCC4)c23)C1 [Example 246, 3-(4-Cyclohexylamino-1H-pyrazolo[4,3-c]pyridin-3-yl)-1-((R)-3-methyl-pyrrolidin-1-yl)-propan-1-one]"
11,< 100,"CC1CN(C(=O)c2ccc(CCc3n[nH]c4ccnc(NC5CCCCC5)c34)cc2)CCN1C (stereo not shown) [Example 247, {4-[2-(4-Cyclohexylamino-1H-pyrazolo[4,3-c]pyridin-3-yl)-ethyl]-phenyl}-(3,4-dimethyl-piperazin-1-yl)-methanone]"
12,< 100,"O=C(c1ccc(CCc2n[nH]c3ccnc(NC4CCCCC4)c23)cc1)N1CC[C@H](c2cccnc2)C1 [Example 248, {4-[2-(4-Cyclohexylamino-1H-pyrazolo[4,3-c]pyridin-3-yl)-ethyl]-phenyl}-((R)-3-pyridin-3-yl-pyrrolidin-1-yl)-methanone]"
13,< 100,"CC(C)CN(C)C(=O)c1ccc(CCc2n[nH]c3ccnc(NC4CCCCC4)c23)cc1 [Example 249, 4-[2-(4-Cyclohexylamino-1H-pyrazolo[4,3-c]pyridin-3-yl)-ethyl]-N-isobutyl-N-methyl-benzamide]"
14,< 100,"O=C(NCc1ccco1)c1ccc(CCc2n[nH]c3ccnc(NC4CCCCC4)c23)cc1 [Example 250, 4-[2-(4-Cyclohexylamino-1H-pyrazolo[4,3-c]pyridin-3-yl)-ethyl]-N-furan-2-ylmethyl-benzamide]"
15,< 100,"CC1CN(C(=O)c2ccc(CCc3n[nH]c4ccnc(NC5CCCCC5)c34)cc2)C1 [Example 251, {4-[2-(4-Cyclohexylamino-1H-pyrazolo[4,3-c]pyridin-3-yl)-ethyl]-phenyl}-(3-methyl-azetidin-1-yl)-methanone]"
16,100 to 1000,"Cn1nccc1NC(=O)c1ccc(CCc2n[nH]c3ccnc(NC4CCCCC4)c23)cc1 [Example 252, 4-[2-(4-Cyclohexylamino-1H-pyrazolo[4,3-c]pyridin-3-yl)-ethyl]-N-(2-methyl-2H-pyrazol-3-yl)-benzamide]"
17,< 100,"O=C(c1ccc(CCc2n[nH]c3ccnc(NC4CCCCC4)c23)cc1)N1CCOCC1 [Example 253, {4-[2-(4-Cyclohexylamino-1H-pyrazolo[4,3-c]pyridin-3-yl)-ethyl]-phenyl}-morpholin-4-yl-methanone]"
18,< 100,"O=C(Nc1ccc2nccnc2c1)c1ccc(CCc2n[nH]c3ccnc(NC4CCCCC4)c23)cc1 [Example 254, 4-[2-(4-Cyclohexylamino-1H-pyrazolo[4,3-c]pyridin-3-yl)-ethyl]-N-quinoxalin-6-yl-benzamide]"
